38 compounds from ChEMBL document CHEMBL1201862, “PubChem BioAssay data set” (2004) can be followed below.

Some targets named below: Cytochrome P450 3A4 (Homo sapiens, UniProt P08684); Cytochrome P450 2C9 (Homo sapiens, UniProt P11712); Cytochrome P450 2D6 (Homo sapiens, UniProt P10635).
Another data set concerns the target T1, Cytochrome P450 1A2 (Homo sapiens, UniProt P05177).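 Further: PubChem cytochrome P450 panel assay, CYP1A2 panel member.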
T1 sequence (P05177 whole entry): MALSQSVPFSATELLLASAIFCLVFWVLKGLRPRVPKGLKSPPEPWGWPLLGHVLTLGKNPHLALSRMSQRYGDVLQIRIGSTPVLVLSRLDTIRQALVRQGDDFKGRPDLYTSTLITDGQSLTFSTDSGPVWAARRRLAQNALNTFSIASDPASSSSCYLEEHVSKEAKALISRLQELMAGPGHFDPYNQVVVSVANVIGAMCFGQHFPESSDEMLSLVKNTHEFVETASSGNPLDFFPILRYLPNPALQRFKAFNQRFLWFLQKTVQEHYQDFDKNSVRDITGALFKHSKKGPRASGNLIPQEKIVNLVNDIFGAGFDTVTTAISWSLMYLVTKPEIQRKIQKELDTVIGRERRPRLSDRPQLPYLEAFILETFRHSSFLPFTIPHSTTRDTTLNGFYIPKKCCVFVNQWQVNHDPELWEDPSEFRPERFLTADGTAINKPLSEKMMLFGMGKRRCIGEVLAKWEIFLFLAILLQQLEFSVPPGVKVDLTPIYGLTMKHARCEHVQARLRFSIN

In another data set the target is Cytochrome P450 2C19 (Homo sapiens, UniProt P33261). Briefly: Cytochrome panel assay with activity outcomes. Panel member name: p450-cyp2c19 Compounds with AC50 equal or less than 10 uM are considered active. The format is functional.
Data set [1] in a line: luciferase reporter signal suppression in cells – H4 neuroglioma cells, luminescence, dose response (AID 1990). The format is functional, cell-based.
The nature of data set [2]: alpha-synuclein stem-loop luciferase translation blockers – H4 neuroglioma cells, luminescence, confirmation (AID 1988). The format is functional, cell-based.
A short description of data set [3]: Luminescence Cell-Based Dose Response HTS to Identify Inhibitors of 5'UTR Stem-Loop Driven Prion Protein mRNA Translation in H4 Neuroglioblastoma Cells. [Related pubchem assays: 1827 (Project Summary), 1813 (Primary HTS)]. The format is functional.
The test system of the next data set is INS1. Briefly: INS-1E survival protection against cytokine death – cell-based, luminescence, retest, dose response (AID 449756).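 Further: cell death triggered by IL-1 beta plus TNF-alpha plus IFN-gamma mixture; protective hits raise ATP signal compared with cytokine alone wells.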 It counts as functional. To be noted: Rattus norvegicus.
A further data set relates to Streptococcus. Briefly: GAS UMAA2166 growth inhibition – luminescence, BacTiterGlo, counter-screen for streptokinase expression inhibitor project, dose response (AID 1915).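 Further: potency for reduction of bacterial viability or growth.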 It counts as functional, organism-based.
The next data set deals with T2, Streptokinase A (Streptococcus pyogenes serotype M1, UniProt P10520).
T2 sequence (P10520 whole entry): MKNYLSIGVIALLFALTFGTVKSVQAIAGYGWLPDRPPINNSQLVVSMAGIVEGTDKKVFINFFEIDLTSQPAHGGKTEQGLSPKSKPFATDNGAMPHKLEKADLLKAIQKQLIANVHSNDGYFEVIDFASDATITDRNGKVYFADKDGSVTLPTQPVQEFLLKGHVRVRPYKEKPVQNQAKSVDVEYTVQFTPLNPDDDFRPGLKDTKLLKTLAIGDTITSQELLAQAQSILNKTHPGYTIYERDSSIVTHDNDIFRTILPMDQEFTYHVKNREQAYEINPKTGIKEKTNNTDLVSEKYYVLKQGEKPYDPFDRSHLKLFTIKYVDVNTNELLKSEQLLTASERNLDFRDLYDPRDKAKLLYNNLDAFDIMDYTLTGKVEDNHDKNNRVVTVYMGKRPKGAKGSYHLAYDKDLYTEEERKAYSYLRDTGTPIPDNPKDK
Briefly: viability-normalized secreted streptokinase activity reduction – plasminogen activation absorbance, OD405, dose response (AID 1914).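 Further: secreted streptokinase activity via plasminogen activation per viability signal from cell pellet.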 It counts as functional, Streptococcus pyogenes M1 GAS.

Data set [4] concerns Streptococcus sp. 'group A'. Briefly: Streptococcus pyogenes SK(-)GAS viability under kanamycin – luminescence, BacTiterGlo, confirmation, counter-screen for streptokinase expression inhibitor project, dose response (AID 1900). The format is functional, organism-based.
Data set [5] can be described thus: viability of uninfected HEp-2 cells – cell-based, HTS, cytotoxicity control for RSV inhibitor project, dose response (AID 2410). The format is functional. To be noted: human respiratory syncytial virus.
A short description of data set [6]: Luminescence Cell-Based Dose Retest to Confirm Inhibitors of Cancer Stem Cells. [Related pubchem assays (depositor defined):AID2717, AID2721]. The format is functional. To be noted: Homo sapiens.

The source made the active and inactive calls.

Chain of Cytochrome P450 3A4 (P08684 whole entry): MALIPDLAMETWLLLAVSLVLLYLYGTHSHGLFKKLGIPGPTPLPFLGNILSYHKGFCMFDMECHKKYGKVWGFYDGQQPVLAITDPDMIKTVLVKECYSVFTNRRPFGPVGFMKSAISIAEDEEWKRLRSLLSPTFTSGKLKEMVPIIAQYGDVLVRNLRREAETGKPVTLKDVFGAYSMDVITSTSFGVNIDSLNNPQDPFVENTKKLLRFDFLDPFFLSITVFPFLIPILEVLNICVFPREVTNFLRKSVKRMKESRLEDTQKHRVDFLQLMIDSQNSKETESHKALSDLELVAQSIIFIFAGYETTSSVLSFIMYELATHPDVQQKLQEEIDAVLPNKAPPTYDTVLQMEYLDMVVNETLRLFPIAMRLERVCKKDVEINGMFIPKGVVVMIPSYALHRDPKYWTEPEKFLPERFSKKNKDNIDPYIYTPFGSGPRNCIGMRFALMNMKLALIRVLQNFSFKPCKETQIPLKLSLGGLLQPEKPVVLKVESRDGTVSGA
Chain of Cytochrome P450 2D6 (P10635 whole entry): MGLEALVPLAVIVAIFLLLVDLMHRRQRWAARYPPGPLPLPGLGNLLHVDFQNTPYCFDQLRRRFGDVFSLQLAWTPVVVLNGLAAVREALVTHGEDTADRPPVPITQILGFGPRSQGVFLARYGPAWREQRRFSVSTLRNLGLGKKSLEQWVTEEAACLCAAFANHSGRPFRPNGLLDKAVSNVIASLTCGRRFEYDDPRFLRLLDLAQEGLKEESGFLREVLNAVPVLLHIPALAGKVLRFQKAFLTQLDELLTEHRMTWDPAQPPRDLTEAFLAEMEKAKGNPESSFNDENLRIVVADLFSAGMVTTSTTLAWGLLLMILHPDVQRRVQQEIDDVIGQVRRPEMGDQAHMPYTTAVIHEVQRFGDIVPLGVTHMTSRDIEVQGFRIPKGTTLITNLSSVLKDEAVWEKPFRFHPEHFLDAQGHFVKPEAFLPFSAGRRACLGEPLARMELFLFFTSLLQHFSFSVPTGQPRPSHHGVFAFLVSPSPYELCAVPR
Chain of Cytochrome P450 2C9 (P11712 whole entry): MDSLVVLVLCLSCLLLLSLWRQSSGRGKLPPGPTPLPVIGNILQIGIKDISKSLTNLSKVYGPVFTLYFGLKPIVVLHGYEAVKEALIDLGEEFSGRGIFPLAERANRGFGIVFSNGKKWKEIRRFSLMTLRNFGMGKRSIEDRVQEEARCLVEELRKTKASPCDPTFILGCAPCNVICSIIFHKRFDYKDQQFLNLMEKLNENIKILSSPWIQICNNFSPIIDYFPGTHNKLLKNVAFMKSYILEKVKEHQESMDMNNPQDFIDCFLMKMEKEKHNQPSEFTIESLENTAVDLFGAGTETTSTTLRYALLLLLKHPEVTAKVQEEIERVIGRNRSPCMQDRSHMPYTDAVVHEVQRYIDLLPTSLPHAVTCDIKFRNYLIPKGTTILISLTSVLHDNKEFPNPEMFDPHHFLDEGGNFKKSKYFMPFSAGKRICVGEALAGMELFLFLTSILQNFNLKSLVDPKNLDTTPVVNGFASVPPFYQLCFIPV
Chain of Cytochrome P450 2C19 (P33261 whole entry): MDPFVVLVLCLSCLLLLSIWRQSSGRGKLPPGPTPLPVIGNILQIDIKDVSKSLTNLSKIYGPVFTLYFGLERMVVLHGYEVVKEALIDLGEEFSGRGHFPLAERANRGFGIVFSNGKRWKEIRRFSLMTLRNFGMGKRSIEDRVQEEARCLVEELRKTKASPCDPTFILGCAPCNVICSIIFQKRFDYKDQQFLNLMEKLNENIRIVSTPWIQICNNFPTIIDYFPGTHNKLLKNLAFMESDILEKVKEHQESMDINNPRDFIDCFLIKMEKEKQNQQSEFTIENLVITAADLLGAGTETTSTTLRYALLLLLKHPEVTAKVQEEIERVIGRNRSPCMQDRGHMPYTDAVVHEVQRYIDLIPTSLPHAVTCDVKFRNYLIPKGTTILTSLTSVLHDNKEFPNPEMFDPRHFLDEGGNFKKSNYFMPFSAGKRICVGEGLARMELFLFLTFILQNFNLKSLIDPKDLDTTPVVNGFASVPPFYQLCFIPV

For the compound `CN(C)c1ncc2nc(-c3cc(F)cc(F)c3)c(=O)n(Cc3cccs3)c2n1`, the AC50 was 5.01 µM (inconclusive) on Cytochrome P450 3A4, 1.58 µM (inconclusive) on Cytochrome P450 1A2 and “inconclusive” at Cytochrome P450 2C19. As for `COc1cc(C(=O)O/N=C(\N)Cc2ccc([N+](=O)[O-])cc2)cc(OC)c1OC`, the half-maximal effective concentration (EC50) in data set [1] was 23.3 µM (active); in data set [2], 8.41 µM (active); in data set [3] it was > 120 µM (not active). `CCOC(=O)C1CCCCN1C(=O)CCc1c(C)nc2ncnn2c1C` (centres undefined): the EC50 was 14.7 µM (active) in [1], 14.8 µM (active) in data set [2] and > 120 µM (not active) in [3]. Turning to `CCCCNCCOCCOc1ccc(C)cc1[N+](=O)[O-]`, the AC50 on Cytochrome P450 2C9 is 3.16 µM (inconclusive); on Cytochrome P450 3A4, 14.1 µM (inconclusive); on Cytochrome P450 2C19 (read-out: AC50), 39.8 µM (inconclusive).

For the compound `Nc1nonc1-c1nc2ccccc2n1Cc1ccc(F)cc1Cl`, the AC50 at Cytochrome P450 2C9 was 3.55 µM (inconclusive); at Cytochrome P450 3A4, 14.1 µM (inconclusive). On to `O=c1cc(CN2CCN(c3ccc(F)cc3)CC2)c2cc3c(cc2o1)CCCC3`, for which, at Cytochrome P450 3A4, the AC50 was 14.1 µM (inconclusive). Take `Cc1cnc(CNc2nc(-c3ccc(C(=O)N(C)C)cc3)nc3ccccc23)cn1`: the concentration at half-maximal activity (AC50) on Cytochrome P450 3A4 is 15.8 µM (inconclusive); on Cytochrome P450 1A2, 25.1 µM (inconclusive). With `Cc1ccccc1Nc1c(-c2ccccn2)nc2c(C)cccn12`, the AC50 with INS1 was 6.81 µM (active). The EC50 with Streptococcus is > 150 µM (not active); at Streptokinase A, > 150 µM (not active); in data set [4], 19.3 µM (active). For the compound `Cc1ccc(CCNC(=O)C2CC(c3ccccc3[N+](=O)[O-])=NO2)cc1` (centres undefined), the AC50 is 39.8 µM (inconclusive) at Cytochrome P450 2C9 and 1.12 µM (inconclusive) at Cytochrome P450 3A4. With `S=C(CSc1ccccc1)Nc1cccc2ccccc12`, the concentration at half-maximal activity (AC50) on Cytochrome P450 3A4 is 3.98 µM (inconclusive). Consider `COC(=O)C/C=C\[C@@H](C)[C@@H](/C=N\O[C@@H]1O[C@H](COC(C)=O)[C@H](OC(C)=O)[C@H](OC(C)=O)[C@H]1OC(C)=O)OC`, for which the AC50 on Cytochrome P450 3A4 was 6.31 µM (inconclusive); at Cytochrome P450 2D6 it was 3.98 µM (inconclusive). In the case of `CC(=O)NNC(=O)c1csc(Cc2c(Cl)sc3ccc(Cl)cc23)n1`, the concentration giving a half-maximal response (EC50) is 11.5 µM (active) in [1], 10.3 µM (active) in data set [2] and > 120 µM (not active) in [3]. For the compound `Cc1onc(-c2c(Cl)cccc2Cl)c1C(=O)Nc1nc(C(C)(C)C)cs1`, the EC50 in data set [1] was 14.4 µM (active); in data set [2] it was 12.2 µM (active); in data set [3], 16.7 µM (active). The CC50 in data set [5] was 17 µM (active).

With `Cc1oc(-c2ccccc2Cl)nc1C[S+]([O-])CC(=O)NCCc1ccccc1` (centres undefined), the EC50 in data set [1], in [2] and in data set [3] was > 120 µM (not active) each time. Turning to `CSc1nc2c(c(=O)n1Cc1ccccc1)SC(C)C2` (centres undefined), the results for the EC50 in data set [1], in data set [2] and in data set [3] were 25.7 µM (active), 84.8 µM (active) and > 120 µM (not active), respectively. As for `Cc1nc(C(=O)NNC(=O)c2c(-c3c(Cl)cccc3Cl)noc2C)cs1`, the AC50 in the data set with INS1 is 6.91 µM (active). `Cc1ccc(N2C(=O)/C(=C\Nc3cc(C)on3)c3ccccc3C2=O)c(C)c1`: the EC50 is > 120 µM (not active) in data set [1], 12.9 µM (active) in data set [2] and 19.6 µM (active) in data set [3]. Regarding `CC1=CC(C)(C)N(S(=O)(=O)c2ccc(F)cc2)c2ccc(C)cc21`, in data set [6], the AC50 is 1.42 µM (active). For `CCC1OC23CCCCC2C(C#N)(C(=N)O3)C1(C#N)C#N` (centres undefined), the AC50 on Cytochrome P450 2C9 was 14.1 µM (inconclusive); on Cytochrome P450 3A4 it was 25.1 µM (inconclusive). Turning to `CCN(CC)CC(=O)Nc1sc2c(c1C(=O)c1ccccc1OC)CCC2`, the half-maximal effective concentration (EC50) in data set [1] is > 120 µM (not active); in data set [2] it was > 120 µM (not active); in [3], 16.2 µM (active).

`CN(C)C(=O)c1ccc(-c2nccc(NCc3ccccc3)n2)cc1`: the concentration at half-maximal activity (AC50) at Cytochrome P450 3A4 was 20 µM (inconclusive); on Cytochrome P450 2D6 it was 39.8 µM (inconclusive); at Cytochrome P450 1A2, 15.8 µM (inconclusive). In the case of `COC(=O)C1=CN(c2ccc(OC)cc2)C=C(C(=O)OC)C1c1ccc(C)c([N+](=O)[O-])c1`, the CC50 in data set [5] is 48.1 µM (active).

Consider `Cc1nc(NCc2ccco2)c2c3c(sc2n1)CCC3`, for which the AC50 at Cytochrome P450 2C9 is 12.6 µM (inconclusive); at Cytochrome P450 3A4, 15.8 µM (inconclusive); on Cytochrome P450 2D6 it was 25.1 µM (inconclusive). Take `C=CCn1c(NCc2ccc(OC)cc2O)nc2ccccc21`: the CC50 in [5] is 37.8 µM (active).

As for `C[C@@H](CSc1ccc(Br)cc1)CN1CC[C@H](C(C)(C)C)CCC1=O`, in data set [6], the AC50 is 0.315 µM (active).

With `Cc1ccc(-c2csc3ncnc(-n4cnc5ccccc54)c23)cc1`, the concentration at half-maximal activity (AC50) in data set [6] was 2.81 µM (active).

Regarding `C[C@@]12CC[C@@H]3c4ccc(O)cc4C[C@H](CCCCCCCCC[S+]([O-])CCCC(F)(F)C(F)(F)F)[C@H]3[C@@H]1CC[C@@H]2O` (some centres undefined), the results for the AC50 on Cytochrome P450 3A4 and at Cytochrome P450 1A2 were 1 µM (inconclusive) and 31.6 µM (inconclusive), respectively. On to `CCOC(=O)c1c(C)[nH]c(C(=O)OCC(=O)NC(C)(C)C)c1C`, for which, in the data set with INS1, the concentration at half-maximal activity (AC50) was 5.11 µM (active). `Cc1ccc(-c2noc(CN3CCN(C(c4ccccc4)c4ccccc4)CC3)n2)cc1`: on Cytochrome P450 3A4, the concentration at half-maximal activity (AC50) is 35.5 µM (inconclusive). With `COc1ccc(-c2sc3cc(OC)c(OC)cc3c2-c2ccc(O)cc2)cc1`, in data set [6], the half-maximal activity concentration (AC50) is 1.58 µM (active).

Turning to `CC(C)(C)OC(=O)N1CCC(CNC(=O)c2cccs2)CC1`, the AC50 in the data set on INS1 is > 260 µM (inactive).

As to `CCOc1cccc(/C=N/NC(=O)c2cc(C3CC3)[nH]n2)c1O`, the concentration at half-maximal activity (AC50) in the data set with INS1 is 3.73 µM (active); in [6], 5.71 µM (active).

For `Cc1cccc(N/N=C(/C=O)C(=O)c2cccs2)c1`, the AC50 in data set [6] is 2.58 µM (active). In the case of `O=C(N/N=C/c1ccccc1)c1c(O)nc2ccccc2c1O`, the AC50 in the data set with INS1 was 6.26 µM (active). For the compound `Cc1nn(-c2ccccc2)c(O)c1/C=N/NC(=O)COc1ccccc1[N+](=O)[O-]`, the AC50 in the data set with INS1 was 3.4 µM (active). For the compound `CCNC(=S)N/N=C/c1cn(Cc2ccc(F)cc2)c2ccccc12`, the AC50 in [6] is 24 µM (active). As to `O=C(Nc1ccccc1)c1cc([N+](=O)[O-])ccc1Cl`, the concentration at half-maximal activity (AC50) is 25.1 µM (inconclusive) on Cytochrome P450 3A4 and 10 µM (inconclusive) on Cytochrome P450 2D6. As to `Cc1ccc(S(=O)(=O)Nc2ccccc2N(C)S(=O)(=O)c2ccc(C)cc2)cc1`, the AC50 in the data set on INS1 is 10.2 µM (active).
